Measured values from patent US9101671B2, “Methods and compositions related to clot binding compounds” (Sanford-Burnham Medical Research Institute, priority 2007, dated 2015).
Where no end group is shown, it is not given here. fluorescent dye = not defined here

How the values were obtained:
[1] = test system: MDA-MB-435 human breast cancer xenografts; assay: Tumor homing of intravenously injected fluorescent CREKA peptide in MDA-MB-435 xenograft mice; assay type: in vivo
Method: (§1) (A). Balb/c nude mice bearing MDA-MB-435 human breast cancer xenograft tumors or transgenic MMTV PyMT mice with breast tumors were intravenously injected with 0.1 mg of fluorescein-CREKA. The animals were sacrificed by perfusion 24 hours post-injection and tissue sections were examined by fluorescent microscopy. Right panel, control organs of MDA-MB 435 tumor mice. Magnification 200×. (B). Whole animal imaging of MDA-MB-435 tumor mouse injected 6 hours earlier with 30 μg of Alexa Fluor 647-labeled CREKA. Maestro imaging system (Cambridge Research Inc., Woburn, Mass.) was used to acquire and process the image. The arrow points to the tumor and the arrowhead to the urinary bladder.
(§2) A tumor-homing peptide was used to construct targeted nanoparticles. […] The most frequently represented peptide sequence in the selected phage preparation was CREKA (cys-arg-glu-lys-ala; SEQ ID NO:1). The CREKA peptide was synthesized with a fluorescent dye attached to the N-terminus and the in vivo distribution of the peptide was studied in tumor-bearing mice. […] The peptide formed a distinct meshwork in the tumor stroma (FIG. 5), and it also highlighted the blood vessels in the tumors.
In vivo screening of a peptide library with the general structure of CX7C (SEQ ID NO: 4), where C is cysteine and X is any amino acid, was carried out as described (Oh 2004) using 65- to 75-day-old transgenic MMTV PyMT mice (Hutchinson 2000). These mice express the polyoma virus middle T antigen (MT) under the transcriptional control of the mouse mammary tumor virus (MMTV), leading to the induction of multi-focal mammary tumors in 100% of carriers. MDA-MB-435 tumors in nude mice and peptide synthesis have been described (Laakkonen 2002; Laakkonen 2004). B16F1 murine melanoma tumors were grown in fibrinogen null mice (Suh 1995) and their normal littermates and used when they reached 0.5-1 cm in size (Pilch 2006).

[2] = test system: B16F1 melanomas; assay: CREKA peptide homing to B16F1 melanomas in fibrinogen null mice and normal littermates; assay type: in vivo; conditions: intravenous injection
Method: Fluorescein-conjugated CREKA peptide (200 μg per mouse) was injected into mice bearing syngeneic B16 melanoma tumors. Representative microscopic fields are shown to illustrate homing of fluorescein-CREKA to fibrin-like structures in tumors in wild type mice (A, arrow) and lack of homing in fibrinogen null mice (B). […] (D) Dextran-coated iron oxide nanoparticles conjugated with fluorescein-CREKA bind to clotted plasma proteins, and the binding is inhibited by free CREKA peptide. […] Magnification: A-B, 200×; D, 600×.
Tumors contain a meshwork of clotted plasma proteins in the tumor stroma and the walls of vessels, but no such meshwork is detectable in normal tissues (Dvorak 1985; Abe 1999; Pilch 2006). The mesh-like pattern produced by the CREKA peptide in tumors prompted the study of whether clotted plasma proteins can be the target of this peptide. The peptide was tested in fibrinogen knockout mice, which lack the fibrin meshwork in their tumors. […] Its structure makes it an attractive peptide to use in nanoparticle targeting because, unlike other clot-binding peptides, which are cyclic 10 amino-acid peptides (Pilch 2006), CREKA is linear and contains only 5 amino acids. Moreover, the sulfhydryl group of the single cysteine residue is not required to provide binding activity and can be used to couple the peptide to other moieties. […]

[3] = test system: human plasma clots; assay: Nanoparticle binding to human plasma clots in vitro
Method: (§3) Phage binding to clotted plasma proteins was determined as described (Pilch 2006). CREKA-SPIO and control SPIO were added to freshly formed plasma clots in the presence or absence of free CREKA peptide. After 10 min incubation, the clots were washed 4 times in PBS, transferred to a new tube and digested in 100 μl concentrated nitric acid. The digested material was diluted in 2 ml distilled water and the iron concentration was determined using inductively coupled plasma-optical emission spectroscopy (ICP-OES, PerkinElmer, Norwalk, Conn.).

[4] = test system: mouse plasma clots; assay: Nanoparticle binding to mouse plasma clots in vitro
Method: as §3

[5] = test system: PyMT tumors; assay: Tumor homing of intravenously injected fluorescent CREKA peptide in MMTV-PyMT mice; assay type: in vivo; conditions: intravenous injection; minutes to hours after the injection; fluorescent dye at N-terminus
Method: as §1
as §2, with “tumors. […]” for “tumors.”

Substance: cys-arg-glu-lys-ala ({fluorescent dye}-CREKA; reading uncertain; also: dye not identified, printed as cys-arg-glu-lys-ala) [CREKA peptide, studied in vivo with a fluorescent dye attached to the N-terminus]
- peptide detection in tumors ([1]; intravenous injection, minutes to hours after the injection, fluorescent dye at N-terminus): readily detectable
- peptide detection in normal tissues ([1]; intravenous injection, tumor-bearing mice): essentially undetectable
- whole body imaging, peptide accumulation ([1]; peptide labeled with Alexa 647, 6 hours after injection of 30 μg): peptide accumulation in the breast cancer xenografts, and in the bladder
- peptide accumulation in tumors ([2]; fibrinogen null mice): failed to accumulate
- peptide accumulation in tumors ([2]; normal littermates of the null mice): formed a brightly fluorescent meshwork
- effect of free peptide on CREKA-SPIO binding to plasma clots [3]: inhibited
- effect of free peptide on CREKA-SPIO binding to plasma clots [4]: inhibited
- peptide detection in tumors [5]: readily detectable
